Row | Structure (SMILES) | melting point [°C]
1 | Cc1cc(-c2nnc3cc(C(C)(C)C)c(OCc4ncn(C)n4)nn23)no1 [Example 6, 7-t-Butyl-3-(5-methylisoxazol-3-yl)-6-(1-methyl-1.2 4-triazol-3-yl)methyloxy-1,2,4-triazolo[4,3-b]pyridazine] | 221 to 223
2 | Cn1ncnc1COc1nn2c(-c3cnccn3)nnc2cc1-c1ccccc1 [Example 2, 6-(2-Methyl-2H-1,2,4-triazol-3-ylmethoxy)-7-phenyl-3-(pyrazin-2-yl)-1,2,4-triazolo[4,3-b]pyridazine] | 264
3 | Cc1cc(-c2nnc3cc(C(C)(C)C)c(OCc4cn(C)nn4)nn23)no1 [Example 7, 7-t-Butyl-3-(5-methylisoxazol-3-yl)-6-(1-methyl-1.2.3-triazol-4-yl)methyloxy-1,2,4-triazolo[4,3-b]pyridazine] | 219 to 221
4 | c1ccc(-c2cc3nnc(-c4cnccn4)n3nc2OCc2nc[nH]n2)cc1 [Example 3, 7-Phenyl-3-(pyrazin-2-yl)-6-(1H-1,2,4-triazol-3-ylmethoxy)-1,2,4-triazolo[4,3-b]pyridazine] | 255

Reference: patent US6444666B1, “Triazolopyridazine Derivatives for treating anxiety and enhancing cognition” (Merck Sharp & Dohme Ltd., priority 1997, dated 2002)
